This note sets out measurements from ChEMBL document CHEMBL3774317, “Design and synthesis of novel tamoxifen analogues that avoid CYP2D6 metabolism” (Eur J Med Chem, 2016).

Data set [1] is described as follows: Cytotoxicity against human SNB75 cells assessed as cell growth at 10^-6 M after 48 hrs by SRB assay. The class given is functional. The note with it: SNB-75, 48 h, read-out: Activity. (Sulforhodamine B stains cellular protein and so reports cell mass.)
Data set [2] can be described thus: Cytotoxicity against human HL-60(TB) cells assessed as cell growth at 10^-6 M after 48 hrs by SRB assay. The class given is functional. The note with it: HL-60, 48 h, read-out: Activity.
For another data set, the target named is T1, Estrogen receptor (Homo sapiens, UniProt P03372).
T1 sequence (P03372 whole entry): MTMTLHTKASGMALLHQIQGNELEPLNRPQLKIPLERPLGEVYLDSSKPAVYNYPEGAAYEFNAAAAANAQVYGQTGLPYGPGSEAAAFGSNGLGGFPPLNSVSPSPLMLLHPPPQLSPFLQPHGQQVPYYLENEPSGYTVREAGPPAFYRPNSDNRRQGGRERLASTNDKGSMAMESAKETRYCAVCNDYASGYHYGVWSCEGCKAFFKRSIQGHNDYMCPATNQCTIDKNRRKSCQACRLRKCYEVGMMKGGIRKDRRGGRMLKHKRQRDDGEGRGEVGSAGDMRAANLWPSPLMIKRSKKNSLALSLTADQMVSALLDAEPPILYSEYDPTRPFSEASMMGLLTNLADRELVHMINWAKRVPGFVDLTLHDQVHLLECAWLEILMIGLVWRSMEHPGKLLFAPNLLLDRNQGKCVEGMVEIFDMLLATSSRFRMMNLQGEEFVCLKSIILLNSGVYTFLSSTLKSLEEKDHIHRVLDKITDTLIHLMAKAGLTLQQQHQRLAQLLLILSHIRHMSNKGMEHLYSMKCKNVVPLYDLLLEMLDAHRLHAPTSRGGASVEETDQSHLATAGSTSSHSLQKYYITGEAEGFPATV

A further data set concerns ACHN. Description: Cytotoxicity against human ACHN cells assessed as cell growth at 10^-4 M after 48 hrs by SRB assay. The settings on record: read-out: Activity. It is filed as functional.
The nature of data set [3]: Cytotoxicity against human SW620 cells assessed as growth inhibition after 48 hrs by SRB assay. The settings on record: SW-620, 48 h. The class given is functional.
Data set [4] deals with SK-MEL-2. Description: Cytotoxicity against human SK-MEL-2 cells assessed as cell growth at 10^-7 M after 48 hrs by SRB assay. It is filed as functional. The note with it: SK-MEL-2, 48 h, read-out: Activity.
The nature of data set [5]: Cytotoxicity against human SNB19 cells assessed as cell growth at 10^-7 M after 48 hrs by SRB assay. It is filed as functional. The note with it: SNB-19, 48 h, read-out: Activity.
Data set [6] can be described thus: Cytotoxicity against human HCC2998 cells assessed as cell growth at 10^-5 M after 48 hrs by SRB assay. It is filed as functional. The note with it: HCC 2998, 48 h, read-out: Activity.
The nature of data set [7]: Cytotoxicity against human HOP92 cells assessed as cell growth at 10^-6 M after 48 hrs by SRB assay. The class given is functional. The note with it: HOP-92, 48 h, read-out: Activity.
Data set [8] is described as follows: Cytotoxicity against human RPMI8226 cells assessed as cell growth at 10^-4 M after 48 hrs by SRB assay. The settings on record: RPMI-8226, 48 h, read-out: Activity. The class given is functional.
In data set [9] the test system is CCRF-CEM. Nature of the data set: Cytotoxicity against human CCRF-CEM cells assessed as cell growth at 10^-5 M after 48 hrs by SRB assay. The class given is functional. The note with it: read-out: Activity.
A short description of data set [10]: Cytotoxicity against human HL-60(TB) cells assessed as cell growth at 10^-8 M after 48 hrs by SRB assay. It is filed as functional. The note with it: HL-60, 48 h, read-out: Activity.
The nature of data set [11]: Cytotoxicity against human SF295 cells assessed as cell growth at 10^-7 M after 48 hrs by SRB assay. The class given is functional. The note with it: SF-295, 48 h, read-out: Activity.
Data set [12] in a line: Cytotoxicity against human UO31 cells assessed as cell growth at 10^-5 M after 48 hrs by SRB assay. It is filed as functional. The note with it: UO-31, 48 h, read-out: Activity.
Another data set deals with SK-MEL-28. Description: Cytotoxicity against human SK-MEL-28 cells assessed as cell growth at 10^-8 M after 48 hrs by SRB assay. It is filed as functional. The note with it: SK-MEL-28, 48 h, read-out: Activity.
In another data set the test system is KM12. Description: Cytotoxicity against human KM12 cells assessed as cell growth at 10^-4 M after 48 hrs by SRB assay. It is filed as functional. The note with it: KM12, 48 h, read-out: Activity.
For the next data set, the system named is MCF7. Nature of the data set: Cytotoxicity against human MCF7 cells assessed as cell growth at 50 uM after 48 hrs by SRB assay. The class given is functional. The settings on record: MCF7, 48 h, read-out: Activity.
A short description of data set [13]: Cytotoxicity against human SNB75 cells assessed as cell growth at 0.5 uM after 48 hrs by SRB assay. It is filed as functional. The note with it: SNB-75, 48 h, read-out: Activity.
Data set [14] in a line: Cytotoxicity against human RXF393 cells assessed as cell growth at 5 nM after 48 hrs by SRB assay. The settings on record: RXF 393, 48 h, read-out: Activity. It is filed as functional.
The nature of data set [15]: Cytotoxicity against human SNB75 cells assessed as cell growth at 50 nM after 48 hrs by SRB assay. The settings on record: SNB-75, 48 h, read-out: Activity. The class given is functional.
Data set [16] can be described thus: Cytotoxicity against human UO31 cells assessed as cell growth at 5 uM after 48 hrs by SRB assay. It is filed as functional. The settings on record: UO-31, 48 h, read-out: Activity.
The subject of a further data set is 786-0. Description: Cytotoxicity against human 786-0 cells assessed as cell growth at 5 uM after 48 hrs by SRB assay. It is filed as functional. The note with it: 786-0, 48 h, read-out: Activity.
The nature of data set [17]: Cytotoxicity against human OVCAR5 cells assessed as cell growth at 50 nM after 48 hrs by SRB assay. The settings on record: OVCAR-5, 48 h, read-out: Activity. It is filed as functional.
The next data set relates to EKVX. Nature of the data set: Cytotoxicity against human EKVX cells assessed as cell growth at 5 nM after 48 hrs by SRB assay. It is filed as functional. The note with it: read-out: Activity.
The nature of data set [18]: Cytotoxicity against human OVCAR4 cells assessed as cell growth at 5 uM after 48 hrs by SRB assay. The class given is functional. The settings on record: OVCAR-4, 48 h, read-out: Activity.
For the next data set, the system named is NCI-H460. Nature of the data set: Cytotoxicity against human NCI-H460 cells assessed as cell growth at 50 nM after 48 hrs by SRB assay. The note with it: NCI-H460, 48 h, read-out: Activity. The class given is functional.
Data set [19] in a line: Metabolic stability in human hepatocytes assessed as remaining parent compound level at 10 uM measured immediately after compound addition by LC/MS analysis. It is filed as ADME, cell-based, Hepatocyte. The note with it: read-out: Drug metabolism.
Data set [20] is described as follows: Cytotoxicity against human SNB75 cells assessed as cell growth at 5 nM after 48 hrs by SRB assay. The note with it: SNB-75, 48 h, read-out: Activity. The class given is functional.
Data set [21] deals with SK-MEL-2. Description: Cytotoxicity against human SK-MEL-2 cells assessed as cell growth at 50 nM after 48 hrs by SRB assay. The class given is functional. The note with it: SK-MEL-2, 48 h, read-out: Activity.
A short description of data set [22]: Cytotoxicity against human OVCAR5 cells assessed as cell growth at 0.5 uM after 48 hrs by SRB assay. It is filed as functional. The settings on record: OVCAR-5, 48 h, read-out: Activity.
Data set [23] relates to SK-MEL-2. Nature of the data set: Cytotoxicity against human SK-MEL-2 cells assessed as cell growth at 0.5 uM after 48 hrs by SRB assay. It is filed as functional. The note with it: SK-MEL-2, 48 h, read-out: Activity.
The next data set has as its system SR. Description: Cytotoxicity against human SR cells assessed as cell growth at 5 uM after 48 hrs by SRB assay. It is filed as functional. The settings on record: read-out: Activity.
Data set [24] is described as follows: Cytotoxicity against human RPMI8226 cells assessed as cell growth at 5 uM after 48 hrs by SRB assay. The class given is functional. The settings on record: RPMI-8226, 48 h, read-out: Activity.
The nature of data set [25]: Cytotoxicity against human COLO205 cells assessed as cell growth at 50 uM after 48 hrs by SRB assay. It is filed as functional. The note with it: COLO 205, 48 h, read-out: Activity.
Data set [26] has as its system CCRF-CEM. Nature of the data set: Cytotoxicity against human CCRF-CEM cells assessed as cell growth at 5 nM after 48 hrs by SRB assay. The settings on record: read-out: Activity. It is filed as functional.

Description for Estrogen receptor: Displacement of [3H]-E2 from human ER-alpha incubated for 16 to 20 hrs by liquid scintillation counting analysis

On to `C/C(=C(/c1ccc(O)cc1)c1ccc(OCCN2CCCC2)cc1)c1ccccc1`, for which the growth at 1 µM in data set [1] stood at 76%; in [2], 90%; in data set [7] it was 84%. The IC50 (commonly the concentration that gives 50% inhibition) on Estrogen receptor came to 0.0008 µM. The growth at 100 µM with ACHN is -91%; in data set [8] it was -57%; in the data set with KM12, -89%. The GI50 (as a rule, the concentration giving 50% growth inhibition) in data set [3] was determined as 2.28 µM. The LC50 (commonly the concentration lethal to half of the exposed cells or organisms) in [3] stood at 15.3 µM. Besides, the TGI (as a rule, the concentration giving total growth inhibition) in data set [3] is 5.16 µM. In addition, the growth at 0.1 µM with SK-MEL-2 [4] was determined as 103%; in [5], 101%; in data set [11], 94%. In addition, the growth at 10 µM in data set [6] was -25%; in the data set with CCRF-CEM [9], -1%; in data set [12], -25%. The growth at 0.01 µM in data set [10] amounted to 97%; in the data set on SK-MEL-28, 90%.

As for `CCCCCCCCCC(=O)Oc1ccc(/C(=C(/C)c2ccccc2)c2ccc(OCCN3CCCC3)cc2)cc1`, the growth at 50 µM was -79% in the data set on MCF7 and -89% in [25]. Also, the results for the growth at 0.5 µM (in data set [13]; in data set [22]; in the data set with SK-MEL-2 [23]) were 68%, 77% and 99%, respectively. Besides, the growth at 0.005 µM in data set [14] is 101%; in the data set on EKVX, 102%; in [20] it was 88%; in the data set on CCRF-CEM [26], 95%. For the same compound, the growth at 0.05 µM in [15] was determined as 83%; in [17], 94%; in the data set with NCI-H460 it was 102%; in the data set on SK-MEL-2 [21], 101%. Besides, on Estrogen receptor, the IC50 is 0.0484 µM. The growth at 5 µM in data set [16] stood at 70%; with 786-0 it was 93%; in data set [18] it was 78%; with SR, 90%; in data set [24], 86%. Further, the GI50 in data set [3] was 8.57 µM. For the same compound, the LC50 in data set [3] was 28.5 µM. The TGI in data set [3] stood at 15.6 µM. Besides, the remaining at 0 h, 10 µM in data set [19] was determined as 29%.
